# In patent publication US20250144176A1, “COMPOSITIONS COMPRISING OSTEOPONTIN (OPN)” (SOCIETE DES PRODUITS NESTLE S.A., priority 2022, published 2025):
# What was measured:
# [1] = test system: immune cell profile; details: infants fed formula supplemented with bovine OPN; cited from earlier work
# [2] = test system: lipopolysaccharide (LPS); details: early life dietary supplementation; cited from earlier work
# [3] = test system: pneumonia virus of mice (PVM); assay: Neonatal mouse model of PVM-induced bronchiolitis: airway smooth muscle remodeling by α-smooth muscle actin immunohistochemistry; type: in vivo, mice (C57BL/6 pups); details: 9 dpi; OPNenriched group, remodeling dysregulated in OPN− group; FIG. 7
# Description: (§1) C57BL/6 pups were either nursed by OPN-sufficient or OPN-deficient dams.
# (§2) At postnatal day 5 (PND5), mice receiving OPN-deficient mother's milk were fed with either a whey protein concentrate (WPC) enriched in OPN (OPNenriched group) or a control WPC (OPN− group) once daily for 15 consecutive days.
# (§3) In a similar way, at PND5, mice receiving OPN-sufficient mother's milk were fed with control WPC (OPN+ group) once daily for 15 consecutive days.
# (§4) At PND10, all animals were infected intra-nasally (i.n.) with 10 PFU of PVM (J3666) to induce bronchiolitis.
# (§5) The used OPN-enriched WPC contained 79 g protein per 100 g, and 729 mg OPN per 100 g. The pups in the OPNenriched group were fed the OPN-enriched WPC as a supplement to deliver 12 μg OPN per average gram of bodyweight per day.
# [4] = test system: pneumonia virus of mice (PVM); assay: Neonatal mouse model of PVM-induced bronchiolitis: viral load (PVM-positive airway epithelial cells) and airway epithelial sloughing; type: in vivo, mice (C57BL/6 pups)
# Description: as §1, §2, §3, §4, §5
# To assess whether OPN intervention has an impact on pathogen expansion, viral load in PVM-infected mice was assessed as the percentage of PVM-positive airway epithelial cells (AEC) stained with an antibody against a specific PVM-glycoprotein. […] AEC detachment is a key feature of viral bronchiolitis and known to be associated with disease severity and viral load. Sloughing of the airway epithelium was quantified by measuring the length of sloughed airway epithelium and expressing this as a percentage of the basement membrane length of a single airway.
# [5] = test system: pneumonia virus of mice (PVM); assay: Neonatal mouse model of PVM-induced bronchiolitis: lung immune cells counted by multi-colour flow cytometry; type: in vivo, mice (C57BL/6 pups)
# Description: as §1, §2, §3, §4, §5
# To investigate whether OPN intervention has an impact on immune cell composition, the number of pDCs, CD4+ and CD8+ T cells and neutrophils in lung tissues 5 and/or 9 days post infection were enumerated using multi-colour flow cytometry. Isolated single-cell suspensions from the lungs were washed with PBS/2% FCS, and red blood cells were lysed using Gey's buffer. Cells were washed again, followed by incubation with anti-FcγRIII/II for 15 min at 4° C. Cells were stained using fluorescently labeled antibodies described in the gating strategies herein, with DAPI, 7-AAD, or Zombie NIR used to exclude dead cells.
Substance,immune cell profile of infants [1],inflammation resulting from LPS administration [2],pathological airway smooth muscle remodeling (ASM area) [3],"virus infected (PVM-positive) airway epithelial cells (AEC), percentage ([4]; 5 dpi, OPNenriched group vs OPN− group, 12 μg OPN per gram bodyweight per day, once daily for 15 days from PND5, FIG. 2a)","sloughing of the airway epithelium (percentage of basement membrane length) ([4]; 9 dpi, OPNenriched group vs OPN+ group, sloughing significantly elevated in OPN− group, FIG. 2b)","number of CD4+ cells in lung tissues ([5]; 5 dpi (peak of viral infection), OPNenriched group vs OPN− group, FIG. 4a)","CD4+ T cell accumulation in the lungs ([5]; 9 dpi (peak of immunopathology), OPNenriched group vs OPN− group, FIG. 4b)","neutrophil infiltration to the airways (granulocytic inflammation) ([5]; 9 dpi, FIG. 6)","number of pDCs in the lung ([5]; OPNenriched group vs OPN− group, FIG. 3)"
"bovine OPN: Bovine milk osteopontin, 262 residues, used as dietary supplement in cited studies",more similar to breastfed infants,reduced inflammation,–,–,–,–,–,–,–
osteopontin [OPN],–,–,attenuated pathological airway smooth muscle remodeling,significant decrease,close to the OPN+ group,significantly higher number,significant decline,reduced granulocytic inflammation,increased number
